Measured values: patent US6737410B1, “Inhibitors of protein farnesyl transferase” (Warner-Lambert Company, priority 1997, dated 2004)
Like-named read-outs stand apart in the source and are kept apart here.

Legend:
[1] = molecular target: T1, SF9 affinity purified rat farnesyl protein transferase (Rattus norvegicus, UniProt Q02293+Q04631); assay: PFT (farnesyl protein transferase) inhibitory activity assay; format: biochemical
T1 construct: made in house; host or cells: Sf9 insect cells
Experimental: The protein:farnesyl transferase (PFT) or farnesyl protein transferase (FPT) inhibitory activity of compounds of the present invention were assayed in HEPES buffer (pH 7.4) containing 5 mM potassium phosphate and 20 μM ZnCl2. The solution also contained 5 mM DTT (dithiothreitol), 5 mM MgCl2, and 0.1% PEG 8000. Assays were performed in 96-well plates (Wallec) and employed solutions composed of varying concentrations of a compound of the present invention in 100% DMSO (dimethylsulfoxide). Upon addition of both substrates, radiolabeled farnesyl pyrophosphate ([1^3H], specific activity 15 to 30 Ci/mmol, final concentration 134 nM) and (biotinyl)-Ahe-Thr-Lys-Cys-Val-Ile-Met ([3aS[3a alpha, 4 beta, 6a alpha]-hexahydro-2-oxo-1H-thieno[3,4-d]imidazole-5-pentanoic acid]-[7-aminoheptanoic acid]-Thr-Lys-Cys-Val-Ile-Met) (Ahe is 7-amino-heptanoic acid, Thr is threonine, Lys is lysine, Cys is cysteine, Val is valine, Ile is isoleucine and Met is methionine) (final concentration 0.2 μM), the enzyme reaction was started by addition of SF9 affinity purified rat farnesyl protein transferase. After incubation at 30° C. for 30 minutes, the reaction was terminated by diluting the reaction 2.5-fold with a stop buffer containing 1.5 M magnesium acetate, 0.2 M H3PO4, 0.5% BSA (bovine serum albumin), and strepavidin beads (Amersham) at a concentration of 1.3 mg/mL. After allowing the plate to settle for 30 minutes at room temperature, radioactivity was quantitated on a microBeta counter (Model 1450, Wallec). The assay was also carried out without 5 mM potassium phosphate.

[2] = system: ras protein farnesylation in ras-transformed cells (H-ras-transformed HIH 3T3 cells); assay: Gel shift assay (inhibition of ras farnesylation in cells); format: cell-based; conditions: for Gel Shift (μM) M.E.D* (minimal effective dose to observe inhibition of ras farnesylation): ras-transformed cells, 18-hour incubation
Experimental: Twenty-four hours after planting 2×10^6 ras-transformed cells per treatment condition, the farnesylation inhibitor is added at varying concentrations. Following an 18-hour incubation period, cells are lysed in phosphate-buffered saline containing 1% Triton X-100, 0.5% sodium deoxycholate, and 0.1% SDS (sodium dodecyl sulfate), pH 7.4 in the presence of several protease inhibitors (PMSF (phenylmethylsulfonylfluoride), antipain, leupeptin, pepstatin A, and aprotinin all at 1 μg/mL). Ras protein is immunoprecipitated from the supernatants by the addition of 3 μg v-H-ras Ab-2 (Y13-259 antibody from Oncogene Science). After overnight immunoprecipitation, 30 μL of a 50% protein G-Sepharose slurry (Pharmacia) is added followed by 45-minute incubation. Pellets are resuspended in 2×tris-glycine loading buffer (Novex) containing 5% β-mercaptoethanol and then denatured by 5 minutes boiling prior to electrophoresis on 14% Tris-glycine SDS gels. Using Western transfer techniques, proteins are transferred to nitrocellulose membranes followed by blocking in blocking buffer. Upon overnight incubation with primary antibody (pan-ras Ab-2 from Oncogene Science), an antimouse HRP (horse radish peroxidase) conjugate secondary antibody (Amersham) is employed for detection of the ras protein. Blots are developed using ECL(enhanced chemiluminescence) techniques (Amersham).

[3] = system: H61 cells: N1H transformed 3T3 H-ras cells; assay: Clonogenic assay (soft agar, 6 well plates); format: cell-based; conditions: H-ras transformed NIH 3T3 cells, colonies counted after Day 13, read-out: Soft Agar IC50 (μM), inhibition of colony formation
Experimental: Clonogenic Assay (6 Well Plates)
Sometime previous to setting up an actual test:
1. Make up 1.5% Bacto Agar in Milli-Q water and autoclave.
2. Make up 500 mL 2×DMEM-HG without phenol red by combining the following:
1 bottle DMEM base powder (Sigma D-5030)
Adjust pH to 7.1 with HCl; filter sterilize.
1. Set up makeshift water bath (beaker of water with thermometer, on hot plate) in the hood. Keep water temperature between 37° C. to 43° C.
2. […] 1.5% Bacto Agar for approximately 2 minutes on high, or until completely melted. Then let it cool somewhat before using it. (You can keep it from resolidifying by setting the bottle on the hot plate.)
Depending on the volume of each layer needed, use either 50 mL conical tubes or 200 mL turnip tubes which can be floated in the “water bath”.
4. Add 1 mL of bottom layer agar/medium to each well: deliver 1 mL warm agar/medium to a well; then using the tip of the pipet, spread the agar/medium around to completely cover the bottom. Repeat with next well.
5. Allow the plates to set at room temperature for about 5 minutes until the bottom layer solidifies.
6. Label sterile Falcon 2054 (12×75 mm) tubes and add appropriate volume of drug solutions into them.
7. Aliquot 4 μL of DMSO or drug solution per 1 mL of agar/medium to appropriate tubes; then add the agar/medium/cells to each tube. Always add 1 mL more than will actually be needed. Mix up and down in the pipet (gently); then deliver 1 mL to the center of each well. The upper layer is less viscous, so it will generally spread out over the bottom layer unaided. If necessary, rotate the plane of the plate gently to spread the top layer evenly over the bottom layer.
8. Let plates set for 5 or 10 minutes at room temperature to solidify, then put into 5% CO2, 37° C. incubator.
9. On Day 13, add 0.5 mL of INT (tetrazolium 1 mg/mL in Milli-Q H2O, filter sterilized) and return plates to incubator.

[4] = system: mammary and salivary carcinomas; conditions: daily administration, ras transgenic mice; cited from earlier work
[5] = system: EJ-1 human bladder carcinoma, HT1080 human fibrosarcoma, and human colon carcinoma xenografts; conditions: 100 mg/kg, nude mice; cited from earlier work
[6] = system: human lung carcinoma with K-ras mutation and p53 deletion; conditions: nude mice; cited from earlier work
[7] = HEPES buffer pH 7.4, without 5 mM potassium phosphate, read-out: IC50 (μM) Hepes
[8] = HEPES buffer pH 7.4 containing 5 mM potassium phosphate, read-out: IC50 (μM) 5 mM PO4•^2 Hepes
[9] = Example 2 compared with Example 1

| IC50 [1, 7] | IC50 [1, 8] | Structure (SMILES) | Gel Shift (μM) M.E.D* (minimal effective dose to observe inhibition of ras farnesylation) [2] | other results |
| --- | --- | --- | --- | --- |
| 0.31 µM | 0.007 µM | CN(C(=O)[C@H](Cc1c[nH]cn1)NC(=O)OCc1ccccc1)[C@@H](Cc1ccc(OCc2ccccc2)cc1)C(=O)NCC(C)(C)c1ccccc1 [Example 3, [S-(R*,R*)]-[1-{[2-(4-Benzyloxy-phenyl)-1-(2-methyl-2-phenyl-propylcarbamoyl)-ethyl]-methyl-carbamoyl}-2-(1H-imidazol-4-yl)-ethyl]-carbamic acid benzyl ester] | 0.05 µM | IC50 ([3]; Mus musculus, NIH3T3, 312 h): 0.1 µM |
| – | – | CC[C@H](C)[C@@H](CO[C@@H](Cc1ccccc1)C(=O)N[C@@H](CCS(C)(=O)=O)C(=O)OC(C)C)NC[C@@H](N)CS [L744,832] | – | effect on mammary and salivary carcinomas [4]: tumor regression |
| 1.76 µM | 0.01 µM | CC(C)C[C@@H](C(=O)NCC(C)(C)c1ccccc1)N(C)C(=O)[C@H](Cc1cnc[nH]1)NC(=O)OCc1ccccc1 [Example 8, [S-(R*,R*)]-(2-(3H-Imidazol-4-yl)-1-{methyl-[3-methyl-1-(2-methyl-2-phenyl-propylcarbamoyl)-butyl]-carbamoyl}-ethyl)-carbamic acid benzyl ester] | ≦0.05 μM | – |
| 0.26 µM | 0.005 µM | CN(C(=O)[C@H](Cc1cnc[nH]1)NC(=O)OCc1ccccc1)[C@@H](Cc1ccccc1)C(=O)NCC(C)(C)c1ccccc1 [Example 7, [S-(R*,R*)]-(2-(3H-Imidazol-4-yl)-1-{methyl-[1-(2-methyl-2-phenyl-propyl-carbamoyl)-2-phenyl-ethyl]-carbamoyl}-ethyl)-carbamic acid benzyl ester] | ≦0.05 μM | – |
| – | – | COC(=O)[C@H](CCSC)NC(=O)[C@H](/C=C\[C@@H](/C=C/[C@@H](N)CS)C(C)C)Cc1ccccc1 [Example B1086] | – | tumor growth by xenografts [5]: inhibit tumor growth |
| – | – | CSCC[C@H](NC(=O)c1ccc(NC[C@@H](N)CS)cc1-c1ccccc1)C(=O)O [FT1276] | – | tumor growth of human lung carcinoma [6]: selectively block tumor growth |
| 0.012 µM | 0.008 µM | CN(Cc1ccccc1)C(=O)N[C@@H](Cc1c[nH]cn1)C(=O)N(C)[C@@H](Cc1ccc(OCc2ccccc2)cc1)C(=O)NCC(C)(C)c1ccccc1 [Example 5, [S-(R*,R*)]-2(3-Benzyl-3-methyl-ureido)-N-[2-(4-benzyloxy-phenyl)-1-(2-methyl-2-phenyl-propyl-carbamoyl)-ethyl]-3-(1H-imidazol-4-yl)-N-methyl-propionamide] | ≦0.05 μM | – |
| 0.38 µM | 0.006 µM | CN(C(=O)[C@H](Cc1c[nH]cn1)NC(=O)OCc1ccccc1)[C@@H](Cc1ccc(OCc2ccccn2)cc1)C(=O)NCC(C)(C)c1ccccc1 [Example 4, [S-(R*,R*)]-[2-(1H-Imidazol-4-yl)-1-(methyl-{1-(2-methyl-2-phenyl-propylcarbamoyl)-2-[4-(pyridin-2-ylmethoxy)-phenyl]-ethyl}-carbamoyl)-ethyl]-carbamic acid benzyl ester] | ≦0.05 μM | – |

| Structure (SMILES) | IC50 [1, 7] | IC50 [1, 8] | Gel Shift (μM) M.E.D* (minimal effective dose to observe inhibition of ras farnesylation) [2] | other results |
| --- | --- | --- | --- | --- |
| CN(C(=O)[C@H](Cc1cnc[nH]1)NC(=O)OCc1ccccc1)[C@@H](Cc1ccc(OCc2ccccc2)cc1)C(=O)NCC1(c2ccccc2)CCC1 (relative stereo) [Example 6, [S-(R*,R*)]-[1-{[2-4-Benzyloxy-phenyl)-1-[(1-phenyl-cyclobutylmethyl)-carbamoyl]-ethyl}-methyl-carbamoyl)-2-(3H-imidazol-4-yl)-ethyl]-carbamic acid benzyl ester] | 1.01 µM | 0.013 µM | ≦0.05 μM | – |
| CN(C(=O)[C@H](Cc1c[nH]cn1)NC(=O)OCc1ccccc1)[C@@H](Cc1ccc(OCc2ccccc2)cc1)C(=O)NCCc1ccccc1 (relative stereo) [Example 2, [S-(R*,R*)]-[1-{[2-(4-Benzyloxy-phenyl)-1-phenethylcarbamoyl-ethyl]-methyl-carbamoyl}-2-(1H-imidazol-4-yl)-ethyl]-carbamic acid benzyl ester] | 1.4 µM | 0.032 µM | 0.2 µM | increase in activity against the enzyme [1, 9]: 10 fold; increase in cellular activity [2, 9]: 5 fold; IC50 [3]: 0.58 µM |
| CN(C(=O)[C@@H](Cc1c[nH]cn1)NC(=O)OCc1ccccc1)[C@@H](Cc1ccc(OCc2ccccc2)cc1)C(=O)NCCOCc1ccccc1 (relative stereo) [Example 1, [R-(R*,S*)]-[1-{[1-(2-Benzyloxy-ethylcarbamoyl)-2-(4-benzyloxy-phenyl)-ethyl]-methyl-carbamoyl}-2-(1H-imidazol-4-yl)-ethyl]-carbamic acid benzyl ester] | 7 µM | 0.4 µM | 1 µM | activity as a ras farnesyl transferase inhibitor ([1]; stated in words): submicromolar; IC50 [3]: 15.1 µM |
